Laboratory results taken from ChEMBL document CHEMBL1201862, “PubChem BioAssay data set” (2004).
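Step 1: Grow cells in 96-well plates. Step 2: Expose to compound for 48 hours at 5 concentrations. Step 3: Interpolate endpoints linearly; if unreached, use highest concentration. The concentration for 50% growth inhibition is given as GI50.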 The source made the active and inactive calls. No stated cut-off is given here; in the data, active = GI50 up to about 1.1 µM and inactive = higher.

Columns and labels:
Assay in all cases: growth of human tumour cells (NCI), 48 h
786-0 = test system: 786-0
A498 = test system: A498
A549 = test system: A549
EKVX = test system: EKVX
HOP-62 = test system: HOP-62
Hs-578T = test system: Hs-578T
IGROV-1 = test system: IGROV-1
M14 = test system: M14
MDA-N = test system: MDA-N
NCI-H226 = test system: NCI-H226
NCI/ADR-RES = test system: NCI/ADR-RES
OVCAR-8 = test system: OVCAR-8
SF-295 = test system: SF-295
SK-MEL-28 = test system: SK-MEL-28
SNB-19 = test system: SNB-19
T47D = test system: T47D
UACC-257 = test system: UACC-257
UACC-62 = test system: UACC-62
UO-31 = test system: UO-31

| Structure (SMILES) | GI50 (786-0) | GI50 (A498) | GI50 (A549) | GI50 (EKVX) | GI50 (HOP-62) | GI50 (Hs-578T) | GI50 (IGROV-1) | GI50 (M14) | GI50 (MDA-N) | GI50 (NCI-H226) | GI50 (NCI/ADR-RES) | GI50 (OVCAR-8) | GI50 (SF-295) | GI50 (SK-MEL-28) | GI50 (SNB-19) | GI50 (T47D) | GI50 (UACC-257) | GI50 (UACC-62) | GI50 (UO-31) |
| --- | --- | --- | --- | --- | --- | --- | --- | --- | --- | --- | --- | --- | --- | --- | --- | --- | --- | --- | --- |
| O=C(CCCc1ccccn1)c1ccccc1 | > 100 µM (inactive) | > 100 µM (inactive) | > 100 µM (inactive) | > 100 µM (inactive) | > 100 µM (inactive) | > 100 µM (inactive) | > 100 µM (inactive) | > 100 µM (inactive) | > 100 µM (inactive) | > 100 µM (inactive) | > 100 µM (inactive) | > 100 µM (inactive) | > 100 µM (inactive) | > 100 µM (inactive) | > 100 µM (inactive) | > 100 µM (inactive) | > 100 µM (inactive) | > 100 µM (inactive) | > 100 µM (inactive) |
| Cc1ccc(S(=O)(=O)N2C[C@@H]3CC[C@]4(CO[Si](C)(C)C(C)(C)C)N[C@@H](c5ccccc5)[C@H]2[C@H]34)cc1 | 27.8 µM (inactive) | 48.8 µM (inactive) | 22.4 µM (inactive) | 34.2 µM (inactive) | 44.2 µM (inactive) | 27.4 µM (inactive) | 31.3 µM (inactive) | 61.7 µM (inactive) | 29.2 µM (inactive) | 14.4 µM (inactive) | 25.9 µM (inactive) | 39.7 µM (inactive) | 24.9 µM (inactive) | > 100 µM (inactive) | 61.4 µM (inactive) | 8.18 µM (inactive) | 23.9 µM (inactive) | 56.4 µM (inactive) | 33 µM (inactive) |
| Cc1cc(C)c2c(=O)cc(-c3ccccc3)[nH]c2c1 | 2.07 µM (inactive) | 1.35 µM (inactive) | 1.84 µM (inactive) | 4.47 µM (inactive) | 5.14 µM (inactive) | 4.59 µM (inactive) | 2.86 µM (inactive) | 3.37 µM (inactive) | 0.284 µM (active) | 9.66 µM (inactive) | 1.61 µM (inactive) | 3.66 µM (inactive) | 3.63 µM (inactive) | 2.52 µM (inactive) | 5.43 µM (inactive) | 12.5 µM (inactive) | 21.7 µM (inactive) | 1.6 µM (inactive) | 9.46 µM (inactive) |
| CC[C@@]1(O)C(=O)OCc2c1cc1n(c2=O)Cc2c-1nc1ccccc1c2/C=N\NC(=O)C(N)CC(C)C (stereo partly specified) | < 0.01 µM (active) | 0.0314 µM (active) | 0.016 µM (active) | 0.438 µM (active) | < 0.01 µM (active) | 11.3 µM (inactive) | 0.233 µM (active) | < 0.0128 µM (active) | 0.171 µM (active) | 0.0277 µM (active) | 0.0215 µM (active) | < 0.0132 µM (active) | < 0.01 µM (active) | 0.605 µM (active) | < 0.01 µM (active) | < 0.01 µM (active) | 0.0536 µM (active) | < 0.01 µM (active) | < 0.0106 µM (active) |
| CC(CC(=O)CO[C@H]1[C@H](O)[C@@H](O)[C@@H](O)[C@@H]2NC(=O)c3c(cc4c(c3O)OCO4)[C@H]21)OC1OC(CO)C(O)C(O)C1O (stereo partly specified) | 0.451 µM (active) | 1.09 µM (active) | 0.646 µM (active) | 0.553 µM (active) | 0.366 µM (active) | 0.4 µM (active) | 0.547 µM (active) | 0.425 µM (active) | 0.508 µM (active) | 0.522 µM (active) | 0.543 µM (active) | 0.313 µM (active) | 1.12 µM (active) | 0.56 µM (active) | 0.304 µM (active) | 0.203 µM (active) | 0.594 µM (active) | 0.733 µM (active) | 1.38 µM (inactive) |
| COc1ccc(N2CN3OC(=O)N(c4ccc(OC)cc4)[C@@]3(c3ccccc3)C2)cc1 | 51.1 µM (inactive) | 19.5 µM (inactive) | 29 µM (inactive) | 23.2 µM (inactive) | 32.6 µM (inactive) | 37.6 µM (inactive) | 20.7 µM (inactive) | 34.4 µM (inactive) | 3.29 µM (inactive) | 47.6 µM (inactive) | 9.48 µM (inactive) | 33.3 µM (inactive) | 16.5 µM (inactive) | 34.5 µM (inactive) | 44 µM (inactive) | 14.3 µM (inactive) | 26.5 µM (inactive) | 13.6 µM (inactive) | 32.9 µM (inactive) |
| CC1(C)N=C(/C=N/O)C(C)(C)N1O | > 100 µM (inactive) | > 100 µM (inactive) | > 100 µM (inactive) | > 100 µM (inactive) | > 100 µM (inactive) | > 100 µM (inactive) | > 100 µM (inactive) | > 100 µM (inactive) | > 100 µM (inactive) | > 100 µM (inactive) | > 100 µM (inactive) | > 100 µM (inactive) | > 100 µM (inactive) | > 100 µM (inactive) | 87.3 µM (inactive) | > 100 µM (inactive) | – | > 100 µM (inactive) | 81.3 µM (inactive) |
| CC(/C=C/c1ccc([N+](=O)[O-])o1)=N/N1CC(CN2CCOCC2)OC1=O (stereo unspecified) | 28.1 µM (inactive) | 32.6 µM (inactive) | 26.8 µM (inactive) | 30.9 µM (inactive) | 26.9 µM (inactive) | 44.8 µM (inactive) | – | 17.3 µM (inactive) | 18.6 µM (inactive) | 21.4 µM (inactive) | 30.2 µM (inactive) | 16.5 µM (inactive) | 86.1 µM (inactive) | 17.3 µM (inactive) | 48.1 µM (inactive) | 16.5 µM (inactive) | 17.5 µM (inactive) | 17.3 µM (inactive) | 21.3 µM (inactive) |
| N=C(N)NS(=O)(=O)c1ccc(NC(=O)c2ccc3nc4ccccc4c(Nc4ccc(S(N)(=O)=O)cc4)c3c2)cc1 | > 100 µM (inactive) | > 100 µM (inactive) | > 100 µM (inactive) | > 100 µM (inactive) | > 100 µM (inactive) | > 100 µM (inactive) | > 100 µM (inactive) | > 100 µM (inactive) | > 100 µM (inactive) | > 100 µM (inactive) | > 100 µM (inactive) | > 100 µM (inactive) | > 100 µM (inactive) | > 100 µM (inactive) | > 100 µM (inactive) | > 100 µM (inactive) | > 100 µM (inactive) | > 100 µM (inactive) | > 100 µM (inactive) |
| CSc1ccc(/C=C2\N=C(c3ccccc3)N(NC(=O)c3c(Cl)c(Cl)c(Cl)c(Cl)c3-c3nc4ccccc4[nH]3)C2=O)cc1 | 36 µM (inactive) | 30.8 µM (inactive) | 30.1 µM (inactive) | 25.5 µM (inactive) | 4.11 µM (inactive) | 34.8 µM (inactive) | 1.79 µM (inactive) | 29.6 µM (inactive) | 6.87 µM (inactive) | 14.2 µM (inactive) | 25.1 µM (inactive) | 37.8 µM (inactive) | 4.49 µM (inactive) | 30.8 µM (inactive) | 48.5 µM (inactive) | 2.03 µM (inactive) | 28.4 µM (inactive) | 19.2 µM (inactive) | 27.4 µM (inactive) |
| O=[N+]([O-])c1cccc2nccc(NCCN3CCOCC3)c12 | 25.2 µM (inactive) | 13.2 µM (inactive) | 18.2 µM (inactive) | 10.7 µM (inactive) | 15.5 µM (inactive) | 15.9 µM (inactive) | 17.4 µM (inactive) | 15.9 µM (inactive) | 16.7 µM (inactive) | 10.2 µM (inactive) | 29.4 µM (inactive) | 20.1 µM (inactive) | 13.9 µM (inactive) | 17.9 µM (inactive) | 25.7 µM (inactive) | 23 µM (inactive) | 10 µM (inactive) | > 10 µM (inactive) | 27.2 µM (inactive) |
| CCNc1cc2c3c(c1)CCCN3CCC2 | 9.66 µM (inactive) | 23.3 µM (inactive) | 17.9 µM (inactive) | 4.03 µM (inactive) | 14.6 µM (inactive) | 25.6 µM (inactive) | 15.6 µM (inactive) | 26.4 µM (inactive) | 3.1 µM (inactive) | 20.4 µM (inactive) | 21 µM (inactive) | 21.2 µM (inactive) | 18.2 µM (inactive) | 31.3 µM (inactive) | 16 µM (inactive) | 18.1 µM (inactive) | 19.7 µM (inactive) | 17.7 µM (inactive) | 41.9 µM (inactive) |
| Cc1ccc(S(=O)(=O)N2CCSCCSCCN(S(=O)(=O)c3ccc(C)cc3)CCN(S(=O)(=O)c3ccc(C)cc3)CC2)cc1 | > 100 µM (inactive) | > 100 µM (inactive) | > 100 µM (inactive) | > 100 µM (inactive) | > 100 µM (inactive) | > 100 µM (inactive) | > 100 µM (inactive) | > 100 µM (inactive) | > 100 µM (inactive) | > 100 µM (inactive) | > 100 µM (inactive) | > 100 µM (inactive) | > 100 µM (inactive) | > 100 µM (inactive) | > 100 µM (inactive) | > 100 µM (inactive) | > 100 µM (inactive) | – | > 100 µM (inactive) |
| CC(Nc1cccc(Cl)c1)c1ccncc1 (stereo unspecified) | > 100 µM (inactive) | 95.9 µM (inactive) | > 100 µM (inactive) | 57.9 µM (inactive) | > 100 µM (inactive) | > 100 µM (inactive) | > 100 µM (inactive) | > 100 µM (inactive) | > 100 µM (inactive) | 44.3 µM (inactive) | 51.3 µM (inactive) | 88.3 µM (inactive) | > 100 µM (inactive) | > 100 µM (inactive) | > 100 µM (inactive) | 27.4 µM (inactive) | 74.1 µM (inactive) | – | 7.21 µM (inactive) |
| COC(=O)c1ccc2cc(O)c(O)cc2c1 | 41.8 µM (inactive) | 30.8 µM (inactive) | 36.9 µM (inactive) | 20.5 µM (inactive) | 56 µM (inactive) | 22.8 µM (inactive) | 26.7 µM (inactive) | 26.3 µM (inactive) | 45 µM (inactive) | 38.9 µM (inactive) | 25.6 µM (inactive) | 33 µM (inactive) | 38.3 µM (inactive) | 46.9 µM (inactive) | 22.8 µM (inactive) | 25.8 µM (inactive) | 29.8 µM (inactive) | 26.2 µM (inactive) | 17.4 µM (inactive) |
